Experimental data taken from paper PMC8510344, “Bile-Acid-Appended Triazolyl Aryl Ketones: Design, Synthesis, In Vitro Anticancer Activity and Pharmacokinetics in Rats” (Molecules, 2021).

Columns and labels:
[1] = system: MCF-7 (human breast adenocarcinoma) cells; experiment: MTT cytotoxicity assay, MCF-7; format: cell-based; details: for viability at 10 µM: MCF7, 10 µM, 48 h exposure, read-out: % Cell Viability at 10 µM MCF-7; for IC50: 48 h
Procedure: (§1) The cytotoxicity activity of all the conjugates (6aa–6df) was evaluated in vitro by MTT assay against two different breast cancer cell lines 4T1 (murine) and MCF-7 (human) and HEK 293 (human) as normal cell line. DTX was used as positive control. Cells were grown in DMEM supplemented with 10% FBS and 1% antibiotic solution and incubated at 5% CO2 and 37 °C for 24 h. The stock solutions of all the conjugates were prepared in DMSO and diluted for further use. Briefly, 5 × 10^3 cells/well were seeded in 96-well cell culture plates and allowed to adhere for 24 h. Cell inhibition (%) was determined after 48 h exposure to the compounds at 1–25 μM concentration. After 48 h, MTT assay was performed and the yellow tetrazolium salt (MTT) was reduced in metabolically active cells to form insoluble purple formazan crystals, which were solubilized by the addition of DMSO. The optical density (OD) was recorded at 560 nm and 630 nm as reference wavelength. Percentage cell inhibition was determined by comparison with untreated cells.

[2] = MTT cytotoxicity assay, normal cell line HEK 293; format: cell-based; details: human, HEK 293 cells, HEK 293 normal cells, 48 h exposure
Procedure: as §1

[3] = system: 4T1 (mouse mammary carcinoma) cells; experiment: MTT cytotoxicity assay, 4T1; format: cell-based; details: for viability at 10 µM: 48 h exposure, read-out: % Cell Viability at 10 µM 4T1; for IC50: 48 h
Procedure: as §1

| SMILES | melting point [°C] | viability at 10 µM ([1]; Homo sapiens) [%] | viability at 48 h, 10 µM [2] [%] | viability at 10 µM ([3]; Mus musculus) [%] | IC50 [1] [µM] | IC50 ([1]; Homo sapiens, MCF7, 48 h) [µM] | IC50 [3] [µM] | IC50 ([3]; Mus musculus) [µM] |
| --- | --- | --- | --- | --- | --- | --- | --- | --- |
| C[C@H](CCC(=O)NCc1cn(CC(=O)c2ccc(Br)cc2)nn1)C1CCC2C3CCC4C[C@H](O)CC[C@]4(C)C3C[C@H](O)[C@@]21C (stereo partly drawn) [6df, (4R)-N-((1-(2-(4-Bromophenyl)-2-oxoethyl)-1H-1,2,3-triazol-4-yl)methyl)-4-((3R,10S,12S,13R)-3,12-dihydroxy-10,13-dimethylhexadecahydro-1H-cyclopenta[a]phenanthren-17-yl)pentanamide] | 135 to 136 | 86.5 | 93.5 | 48.4 | – | – | – | – |
| Cc1ccc(C(=O)Cn2cc(COC(=O)CC[C@@H](C)C3CCC4C5CCC6C[C@H](O)CC[C@]6(C)C5C[C@H](O)[C@@]43C)nn2)cc1 (stereo partly drawn) [6bb, (1-(2-Oxo-2-(p-tolyl)ethyl)-1H-1,2,3-triazol-4-yl)methyl (4R)-4-((3R,10S,12S,13R)-3,12-dihydroxy-10,13-dimethylhexadecahydro-1H-cyclopenta[a]phenanthren-17-yl)pentanoate] | 123 to 125 | 67.6 | 89.2 | 85.7 | – | – | – | – |
| Cc1ccc(C(=O)Cn2cc(COC(=O)CC[C@@H](C)C3CCC4C5C(C[C@H](O)[C@@]43C)[C@@]3(C)CC[C@@H](O)CC3C[C@H]5O)nn2)cc1 (stereo partly drawn) [6ab, (1-(2-Oxo-2-(p-tolyl)ethyl)-1H-1,2,3-triazol-4-yl)methyl (4R)-4-((3R,7R,10S,12S,13R)-3,7,12-trihydroxy-10,13-dimethylhexadecahydro-1H-cyclopenta[a]phenanthren-17-yl)pentanoate] | – | 57.4 | 87.6 | 72.9 | – | – | – | – |
| C[C@H](CCC(=O)NCc1cn(CC(=O)c2ccccc2)nn1)C1CCC2C3C(C[C@H](O)[C@@]21C)[C@@]1(C)CC[C@@H](O)CC1C[C@H]3O (stereo partly drawn) [6ca, (4R)-N-((1-(2-Oxo-2-phenylethyl)-1H-1,2,3-triazol-4-yl)methyl)-4-((3R,7R,10S,12S,13R)-3,7,12-trihydroxy-10,13-dimethylhexadecahydro-1H-cyclopenta[a]phenanthren-17-yl)pentanamide] | 148 to 149 | 92.1 | 90.1 | 85.2 | – | – | – | – |
| C[C@H](CCC(=O)NCc1cn(CC(=O)c2ccc(Cl)cc2)nn1)C1CCC2C3C(C[C@H](O)[C@@]21C)[C@@]1(C)CC[C@@H](O)CC1C[C@H]3O (stereo partly drawn) [6ce, (4R)-N-((1-(2-(4-Chlorophenyl)-2-oxoethyl)-1H-1,2,3-triazol-4-yl)methyl)-4-((3R,7R,10S,12S,13R)-3,7,12-trihydroxy-10,13-dimethylhexadecahydro-1H-cyclopenta[a]phenanthren-17-yl)pentanamide] | 154 to 155 | 69.2 | 92.7 | 50.6 | – | – | – | – |
| C[C@H](CCC(=O)OCc1cn(CC(=O)c2ccc(F)cc2)nn1)C1CCC2C3CCC4C[C@H](O)CC[C@]4(C)C3C[C@H](O)[C@@]21C (stereo partly drawn) [6bd, (1-(2-(4-Fluorophenyl)-2-oxoethyl)-1H-1,2,3-triazol-4-yl)methyl (4R)-4-((3R,10S,12S,13R)-3,12-dihydroxy-10,13-dimethylhexadecahydro-1H-cyclopenta[a]phenanthren-17-yl)pentanoate] | 127 to 128 | 79.6 | 89.4 | 52.4 | – | – | – | – |
| COc1ccc(C(=O)Cn2cc(CNC(=O)CC[C@@H](C)C3CCC4C5C(C[C@H](O)[C@@]43C)[C@@]3(C)CC[C@@H](O)CC3C[C@H]5O)nn2)cc1 (stereo partly drawn) [6cc, (4R)-N-((1-(2-(4-Methoxyphenyl)-2-oxoethyl)-1H-1,2,3-triazol-4-yl)methyl)-4-((3R,7R,10S,12S,13R)-3,7,12-trihydroxy-10,13-dimethylhexadecahydro-1H-cyclopenta[a]phenanthren-17-yl)pentanamide] | – | 95.4 | 96.8 | 56.8 | – | – | – | – |
| C[C@H](CCC(=O)OCc1cn(CC(=O)c2ccc(Br)cc2)nn1)C1CCC2C3CCC4C[C@H](O)CC[C@]4(C)C3C[C@H](O)[C@@]21C (stereo partly drawn) [6bf, (1-(2-(4-Bromophenyl)-2-oxoethyl)-1H-1,2,3-triazol-4-yl)methyl (4R)-4-((3R,10S,12S,13R)-3,12-dihydroxy-10,13-dimethylhexadecahydro-1H-cyclopenta[a]phenanthren-17-yl)pentanoate] | 176 to 177 | 44.4 | 86.8 | 60.9 | 18.3 ± 1.48 | < 19 | 9.68 ± 1.59 | < 19 |
| Cc1ccc(C(=O)Cn2cc(CNC(=O)CC[C@@H](C)C3CCC4C5C(C[C@H](O)[C@@]43C)[C@@]3(C)CC[C@@H](O)CC3C[C@H]5O)nn2)cc1 (stereo partly drawn) [6cb, (4R)-N-((1-(2-Oxo-2-(p-tolyl)ethyl)-1H-1,2,3-triazol-4-yl)methyl)-4-((3R,7R,10S,12S,13R)-3,7,12-trihydroxy-10,13-dimethylhexadecahydro-1H-cyclopenta[a]phenanthren-17-yl)pentanamide] | 129 to 131 | 61.9 | 86 | 96.7 | – | – | – | – |
| C[C@H](CCC(=O)NCc1cn(CC(=O)c2ccc(Cl)cc2)nn1)C1CCC2C3CCC4C[C@H](O)CC[C@]4(C)C3C[C@H](O)[C@@]21C (stereo partly drawn) [6de, (4R)-N-((1-(2-(4-Chlorophenyl)-2-oxoethyl)-1H-1,2,3-triazol-4-yl)methyl)-4-((3R,10S,12S,13R)-3,12-dihydroxy-10,13-dimethylhexadecahydro-1H-cyclopenta[a]phenanthren-17-yl)pentanamide] | 100 to 101 | 86.8 | 90.5 | 62.9 | – | – | – | – |
| C[C@H](CCC(=O)NCc1cn(CC(=O)c2ccc(F)cc2)nn1)C1CCC2C3C(C[C@H](O)[C@@]21C)[C@@]1(C)CC[C@@H](O)CC1C[C@H]3O (stereo partly drawn) [6cd, (4R)-N-((1-(2-(4-Fluorophenyl)-2-oxoethyl)-1H-1,2,3-triazol-4-yl)methyl)-4-((3R,7R,10S,12S,13R)-3,7,12-trihydroxy-10,13-dimethylhexadecahydro-1H-cyclopenta[a]phenanthren-17-yl)pentanamide] | 137 to 138 | 88.7 | 97.5 | 70.7 | – | – | – | – |
| COc1ccc(C(=O)Cn2cc(COC(=O)CC[C@@H](C)C3CCC4C5C(C[C@H](O)[C@@]43C)[C@@]3(C)CC[C@@H](O)CC3C[C@H]5O)nn2)cc1 (stereo partly drawn) [6ac, (1-(2-(4-Methoxyphenyl)-2-oxoethyl)-1H-1,2,3-triazol-4-yl)methyl (4R)-4-((3R,7R,10S,12S,13R)-3,7,12-trihydroxy-10,13-dimethylhexadecahydro-1H-cyclopenta[a]phenanthren-17-yl)pentanoate] | 176 to 177 | 55.6 | 87.9 | 80 | – | – | – | – |
| C[C@H](CCC(=O)OCc1cn(CC(=O)c2ccccc2)nn1)C1CCC2C3C(C[C@H](O)[C@@]21C)[C@@]1(C)CC[C@@H](O)CC1C[C@H]3O (stereo partly drawn) [6aa, (1-(2-Oxo-2-phenylethyl)-1H-1,2,3-triazol-4-yl)methyl (4R)-4-((3R,7R,10S,12S,13R)-3,7,12-trihydroxy-10,13-dimethylhexadecahydro-1H-cyclopenta[a]phenanthren-17-yl)pentanoate] | 108 to 109 | 77.3 | 86.1 | 74.3 | – | – | – | – |
| COc1ccc(C(=O)Cn2cc(CNC(=O)CC[C@@H](C)C3CCC4C5CCC6C[C@H](O)CC[C@]6(C)C5C[C@H](O)[C@@]43C)nn2)cc1 (stereo partly drawn) [6dc, (4R)-4-((3R,10S,12S,13R)-3,12-Dihydroxy-10,13-dimethylhexadecahydro-1H-cyclopenta[a]phenanthren-17-yl)-N-((1-(2-(4-methoxyphenyl)-2-oxoethyl)-1H-1,2,3-triazol-4-yl)methyl)pentanamide] | 114 to 115 | 68.5 | 86.5 | 64.9 | – | – | – | – |
| C[C@H](CCC(=O)OCc1cn(CC(=O)c2ccc(F)cc2)nn1)C1CCC2C3C(C[C@H](O)[C@@]21C)[C@@]1(C)CC[C@@H](O)CC1C[C@H]3O (stereo partly drawn) [6ad, (1-(2-(4-Fluorophenyl)-2-oxoethyl)-1H-1,2,3-triazol-4-yl)methyl (4R)-4-((3R,7R,10S,12S,13R)-3,7,12-trihydroxy-10,13-dimethylhexadecahydro-1H-cyclopenta[a]phenanthren-17-yl)pentanoate] | 152 to 153 | 66.5 | 86.8 | 47.7 | – | – | – | – |
| CC(=O)O[C@@]12CO[C@@H]1C[C@H](O)[C@@]1(C)C(=O)[C@H](O)C3=C(C)[C@@H](OC(=O)[C@H](O)[C@@H](NC(=O)OC(C)(C)C)c4ccccc4)C[C@@](O)([C@@H](OC(=O)c4ccccc4)[C@H]21)C3(C)C [DTX, Docetaxel, reference compound] | – | 46.5 | – | 56.9 | – | 9.46 ± 0.98 | – | 13.8 ± 1.07 |
